Measurements: paper PMC12084297, “Cytoplasmic connexin43-microtubule interactions promote glioblastoma stem-like cell maintenance and tumorigenicity” (Cell Death & Disease, 2025)

Tests used:
β-tubulin = assay: Cellular thermal shift assay (CETSA), β-tubulin target engagement; assay type: binding, human; conditions: fresh VTC-037 GSC lysates, 3-fold dilutions 222.2-2.7 nM, 1 h, heat challenge 57 °C (Tagg(75)) 20 min, immunoblot, normalized to DMSO control
Protocol: (§1) For an initial determination of the melting profile of α- and β- tubulin, fresh lysates of GSCs prepared in non-denaturing buffer were dispensed into 96-well PCR plate in stem cell medium (approximately 10,000 cells/well/50 µl), and then subjected to temperature gradient (37–65 °C) for 20 min. Subsequently, centrifugation was performed at 14,000 rpm to sediment the unstable protein content. Supernatant was collected and SDS-PAGE gel was run, and immunodetection was performed to detect α- and β- tubulin using specific primary antibodies described above. A rabbit antibody against β-actin (Cell Signaling Technology; 4970) was used as negative control. Band intensities were quantified on LI-COR C-DiGit Blot Scanner, and subsequently Tagg(50) and Tagg(75) values were calculated for α- and β- tubulin. In a subsequent run, fresh lysates of GSCs were treated at various doses with 3-fold dilutions (222.2, 74.0, 24.7, 8.2 and 2.7 nM) of peptides JM2 and JM2-scrambled, together with DMSO as control, for 1 h. Samples were then subjected to heat challenge at 57 °C for 20 min, and unstable protein was removed by centrifugation step. Following an immunoblotting step, band intensities of the stable tubulin was quantified, and normalized to DMSO control. EC50 values of engagement for both peptide with α- and β- tubulin were subsequently calculated.

β-actin = molecular target: T1, β-actin (Homo sapiens, UniProt P60709); assay: Cellular thermal shift assay (CETSA), actin negative control; assay type: binding; conditions: VTC-037 GSC lysates, 57 °C, β-actin as negative control
T1 construct: fresh lysates of GSCs prepared in non-denaturing buffer; endogenous in cells; host or cells: VTC-037 patient-derived glioblastoma stem-like cells (lysate)
Protocol: as §1

α-tubulin = assay: Cellular thermal shift assay (CETSA), α-tubulin target engagement; assay type: binding, human; conditions: fresh VTC-037 GSC lysates, 3-fold dilutions 222.2-2.7 nM, 1 h, heat challenge 57 °C (Tagg(75)) 20 min, immunoblot, normalized to DMSO control
Protocol: as §1

LN229/GSC tumor = assay: TUNEL and H&E of LN229/GSC-derived tumor sections; assay type: in vivo, mouse (BALB/c nude), human LN229/GSC cells; conditions: LN229/GSC tumors, 300 µM intratumorally every other day, after 33 days
Protocol: (§2) Tumors were harvested, snap-frozen in Tissue-Tek® O.C.T. compound (Sakura), and stored at −80 °C until sectioning. […] sections were cut using a Leica CM1850 UV cryostat, placed onto Superfrost Plus^TM slides (Fisher Scientific) and fixed in −20 °C acetone for 5 minutes before air drying. Slides were stored at −80 °C prior to labeling. Tumors sections were then rehydrated in PBS for 5 min, permeabilized in 0.1% Triton X-100 in PBS for 1 h at room temperature, and washed four times with PBS (2 x quick, 2 × 5 min) prior to incubating with streptavidin conjugated to Alexa Fluor 647 (Thermo Fisher) diluted in high-salt buffer (0.5 M NaCl, 10 mM Hepes) for 30 min at room temperature. Tumor sections were then washed four times with high-salt buffer (2 x quick, 2 × 10 min), and twice with PBS (2 × 5 min) before using One-step TUNEL In Situ Apoptosis kit (Green Elab Fluor® 488; Elabscience), according to manufacturer’s instructions. Tumor sections were then washed in PBS (3 × 5 min), incubated with DAPI (Thermo Fisher) in PBS for 5 min, and washed again with PBS (4 × 5 min) before the slides were mounted using Prolong Gold Antifade (Thermo Fisher). GBM22-derived tumor sections were analyzed using fluorescence confocal microscopy on a Nikon NIE upright confocal microscope, while LN229/GSC-derived tumor sections were observed using LED illumination microscopy on a Revolve microscope. For hematoxylin and eosin (H&E) staining, tumor sections were stained using a Histo-Tek® SL Slide Stainer (Sakura), and observed using phase contrast microscopy on a Revolve microscope. Investigators were blinded for all image acquisition experiments.

VTC-034 GSCs = assay: Caspase 3/7 activity, VTC-034 GSCs; assay type: cell-based, human; conditions: VTC-034 adherent GSCs, 10, 50 or 100 μM, 48 h, Caspase-Glo 3/7
Protocol: Cells were plated in 96-well plates (2000–5000 cells per well) and treated the following day with TMZ (10, 50, or 100 μM), antennapedia, JM2-scrambled, or JM2 (10, 50, or 100 μM). After 4 days, cell viability was monitored following addition of MTS reagent (Promega) according to manufacturer’s instructions. The absorbance at 490 nm was measured using a SpectraMax i3 or iD3 microplate reader (Molecular Devices). For the caspase 3/7 activity assay, cells were plated in 96-well plates (2000 cells per well) and treated with TMZ or peptides as described above. The activity of caspase 3/7 was measured after 48 h using the Caspase-Glo® 3/7 assay (Promega) following the manufacturer’s instructions. Fold change of caspase 3/7 activity was defined as the ratio of caspase 3/7 luminescence in treated cells compared to controls.

PDX GBM22 tumor = assay: TUNEL and H&E of GBM22-derived tumor sections; assay type: in vivo, mouse (athymic nude), human GBM22 cells; conditions: GBM22 tumors, 300 μM intratumorally every day for 14 days, harvested after 16 days
Protocol: as §2

GSDVFKRKFVDRKVG [JM2-scrambled, reference compound]
EC50 (β-tubulin): > 200 nM
EC50 target engagement, actin (negative control) (β-actin): no EC50 was detected
EC50 (α-tubulin): > 200 nM
Cell death in tumor sections (TUNEL) (LN229/GSC tumor): no significant cell death was observed
Apoptosis induction (caspase 3/7 activity) (VTC-034 GSCs): inefficient in inducing apoptosis
Cell death in tumor sections (TUNEL) (PDX GBM22 tumor): no significant correlation was observed

VFFKGVKDRVKGRSD [JM2]
EC50 (β-tubulin): 7.9 nM
EC50 target engagement, actin (negative control) (β-actin): no EC50 was detected
EC50 (α-tubulin): 8.4 nM
Cell death in tumor sections (H&E) (LN229/GSC tumor): further confirmed by H&E staining
Cell death in tumor sections (TUNEL) (LN229/GSC tumor): increased LN229-derived GSC death that positively correlated with the presence of JM2 within the tumors
Apoptosis induction (caspase 3/7 activity) (VTC-034 GSCs): increased caspase 3/7 activity in these cells in a dose-dependent manner
Cell death in tumor sections (H&E) (PDX GBM22 tumor): Increased cell death within JM2-treated tumors was further confirmed
Cell death in tumor sections (TUNEL) (PDX GBM22 tumor): Positive JM2 signal within the tumors correlated with an increase in cell death
